These results are taken from patent US6034215A, “3-amino-2-oxo-1-piperidnercetic derivatives as enzyme inhibitors” (Corvas International, Inc., priority 1997, dated 2000).

Where two headings read alike, the source gives them in different places.

Usually IC50 stands for the concentration needed to halve the response being measured.

For test [1], the system named is FeCl3 -induced Platelet-dependent Arterial Thrombosis. Nature of the test: Rat model of FeCl3 -induced platelet-dependent arterial thrombosis. Conditions: for Incidence of Occlusion: rat. It is filed as in vivo. The source says: This is a well characterized model of platelet dependent, arterial thrombosis which has been used in the evaluation potential antithrombotic compounds such as direct thrombin inhibitors. Kurz, K. D., Main, B. W., and Sandusky, G. E., Thromb. Res., 60: 269-280 (1990). In this model a platelet-rich, occlusive thrombus is formed in a segment of the rat carotid artery treated locally with a fresh solution of FeCl3 absorbed to a piece of filter paper. The FeCl3 is thought to diffuse into the treated segment of artery and causes de-endothelialization of the affected vessel surface. […] The effect of a test compound on the incidence of occlusive thrombus formation following the application of the FeCl3 is monitored by ultrasonic flowtometry and is used as the primary end point. The use of flowtometry to measure carotid artery blood flow, is a modification of the original procedure in which thermal detection of clot formation was employed. Kurz, K. D., Main, B. W., and Sandusky, G. E., Thromb. Res., 60: 269-280 (1990).
Male Harlan Sprague Dawley rats (420-450 g) were acclimated at least 72 hours prior to use and fasted for 12 hours prior to surgery with free access to water. The animals were prepared, anesthetized with Nembutal followed by the insertion of catheters for blood pressure monitoring, drug and anesthesia delivery. The left carotid artery was isolated by making a midline cervical incision followed by blunt dissection and spreading techniques to separate a 2 cm segment of the vessel from the carotid sheath. A silk suture is inserted under the proximal and distal ends of the isolated vessel to provide clearance for the placement of a ultrasonic flow probe (Transonic) around the proximal end of the vessel. The probe is then secured with a stationary arm.
Following surgery the animals were randomized in either a control (saline) or treatment group with test compound (BzlSO2 -norVal(cyclo)-Gly-Arg-al or N-(BnSO2 -norLeu(cyclo)Gly)-L-argininal)with at least 6 animals per group per dose. The test compound was administered as a single intravenous bolus at the doses outlined in Table 3 after placement of the flow probe and 5 minutes prior to the thrombogenic stimulus. At t=0, a 3 mm diameter piece of filter paper (Whatman #3) soaked with 10 microliters of a 35% solution of fresh FeCl3 (made up in water) was applied the segment of isolated carotid artery distal to the flow probe. Blood pressure, blood flow, heart rate, and respiration were monitored for 60 minutes.
The incidence of occlusion (defined as the attainment of zero blood flow) was recorded as the primary end point.
This allows a direct comparison of the antithrombotic efficacy of BzlSO2 -norVal(cyclo)-Gly-Arg-al and N-(BnSO2 -norLeu(cyclo)-Gly)-L-argininal with other antithrombotic agents which have also been evaluated in this model as described above. Table 6 lists the ED50 values for several well known anticoagulant agents in this model compared to the present compounds.

The test system of the next test is citrated rat plasma. Nature of the test: Anticoagulant effect in rat plasma, activated partial thromboplastin time (APTT) assay. It is filed as biochemical. The method, then: (§1) The ex vivo anticoagulant effects of BzlSO2 -norVal (cyclo)-Gly-Arg-al(Example 8) and N-(BnSO2 -norLeu (cyclo)-Gly)-L-argininal (Example 34) were determined by measuring the prolongation of the activated partial thromboplastin time (APTT) over a broad concentration range of the added inhibitor, using pooled normal human and rat plasma.
(§2) Fresh frozen citrated pooled normal human plasma was obtained from George King Biomedical, Overland Park, Kans. Pooled normal rat plasma was prepared from citrated whole blood collected from anesthetized rats using standard procedures. The plasma was flash frozen and stored at -80° C. until use.
(§3) Measurements APTT was made using the Coag-A-Mate RA4 automated coagulometer (General Diagnostics, Organon Technica, Oklahoma City, Okla.) using the Automated APTT reagent (Organon Technica, Durham, N.C.) as the initiator of clotting according to the manufacturers instructions. The assay was conducted by making a series of dilutions of the test compounds in rapidly thawed plasma followed by adding 200 microliters to the wells of the assay carousel.

Another test deals with T1, human aPC (Homo sapiens, UniProt P04070).
T1 construct: purchased Hematologic Technologies, Inc
Nature of the test: In vitro enzyme assay for specificity: activated protein C, IC50. It is filed as biochemical. To be noted: Table 3. The method, then: aPC catalytic activity was determined using the chromogenic substrate, Pefachrome PC (delta-carbobenzloxy-D-lysine -L-prolyl-L-arginine-p-nitroanilide), obtained from Pentapharm Ltd.). […] Purified human aPC was obtained from Hematologic Technologies, Inc. The enzyme was diluted into HBSA prior to assay in which the final concentration was 1.0 nM.

A further test concerns the target T2, Human rt-PA (Activase®) (Homo sapiens, UniProt P00750).
T2 construct: purchased Genentech Inc. Activase®
The experiment in a line: In vitro enzyme assay for specificity: recombinant tissue plasminogen activator, IC50. The class given is biochemical. Conditions: Table 3.

In test [2] the target is T3, bovine pancreatic trypsin (Bos taurus, UniProt P00760).
T3 sequence (P00760 24-246): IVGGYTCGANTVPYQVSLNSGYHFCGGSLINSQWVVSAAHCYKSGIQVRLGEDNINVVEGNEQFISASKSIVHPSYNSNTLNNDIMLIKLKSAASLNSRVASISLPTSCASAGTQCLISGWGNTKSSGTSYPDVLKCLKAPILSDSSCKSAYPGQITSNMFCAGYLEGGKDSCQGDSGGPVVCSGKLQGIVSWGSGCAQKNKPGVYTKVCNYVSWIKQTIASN
Nature of the test: In vitro enzyme assay for specificity: trypsin, IC50. It is filed as biochemical. Conditions: Table 2. The method, then: Trypsin catalytic activity was determined using the chromogenic substrate, S-2222 (benzoyl-L-isoleucine-L-glutamic acid-(gamma-methyl ester)-L-arginine-p-nitroanilide), which was obtained from Kabi Diagnostica. […] Purified (3×-crystallized; TRL3) bovine pancreatic trypsin was obtained from Worthington Biochemical Corp. The enzyme was reconstituted in deionized water and diluted into HBSA prior to assay in which the final concentration was 0.5 nM.

The subject of another test is citrated human plasma. The experiment in a line: Anticoagulant effect in human plasma, activated partial thromboplastin time (APTT) assay. The class given is biochemical. The method, then:
as §1, §2, §3

The next test addresses human plasmin (Homo sapiens, UniProt P00747). The experiment in a line: In vitro enzyme assay for specificity: plasmin assay, IC50. The class given is biochemical. Conditions: Table 3. The method, then:
Plasmin catalytic activity was determined using the chromogenic substrate, S-2251 (D-valyl-L-leucyl-L-lysine-p-nitroanilide), which was obtained from Kabi Diagnostica.

In another test the target is human α-thrombin (Homo sapiens, UniProt P00734). The experiment in a line: In vitro enzyme assay for specificity: Thrombin (fIIa) assay, IC50. The class given is biochemical. The method, then:
IC50 determinations were conducted where HBSA (50 μL), α-thrombin (50 μl) and inhibitor (50 μl) (covering a broad concentration range), were combined in appropriate wells and incubated for 30 minutes at room temperature prior to the addition of substrate Pefachrome-t-PA (50 μl).

The mark [3] stands for this setting: Table 3, read-out: IC50 (nM) thrombin.

T1 sequence (P04070 43-197 limits assumed): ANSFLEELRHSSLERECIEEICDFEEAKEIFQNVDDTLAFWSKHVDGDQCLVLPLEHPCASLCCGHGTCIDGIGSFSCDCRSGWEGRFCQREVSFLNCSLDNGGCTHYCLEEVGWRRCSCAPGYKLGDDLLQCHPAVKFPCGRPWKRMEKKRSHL
T1 sequence (P04070 212-461 limits assumed): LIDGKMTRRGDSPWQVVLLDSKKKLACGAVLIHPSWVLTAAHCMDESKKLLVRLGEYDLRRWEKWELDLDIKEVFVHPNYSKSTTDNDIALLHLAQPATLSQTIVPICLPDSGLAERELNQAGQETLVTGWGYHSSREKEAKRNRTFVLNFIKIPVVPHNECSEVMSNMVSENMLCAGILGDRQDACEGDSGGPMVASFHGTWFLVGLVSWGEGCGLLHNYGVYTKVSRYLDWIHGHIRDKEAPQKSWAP
Chain of human plasmin (P00747 97-580 limits assumed): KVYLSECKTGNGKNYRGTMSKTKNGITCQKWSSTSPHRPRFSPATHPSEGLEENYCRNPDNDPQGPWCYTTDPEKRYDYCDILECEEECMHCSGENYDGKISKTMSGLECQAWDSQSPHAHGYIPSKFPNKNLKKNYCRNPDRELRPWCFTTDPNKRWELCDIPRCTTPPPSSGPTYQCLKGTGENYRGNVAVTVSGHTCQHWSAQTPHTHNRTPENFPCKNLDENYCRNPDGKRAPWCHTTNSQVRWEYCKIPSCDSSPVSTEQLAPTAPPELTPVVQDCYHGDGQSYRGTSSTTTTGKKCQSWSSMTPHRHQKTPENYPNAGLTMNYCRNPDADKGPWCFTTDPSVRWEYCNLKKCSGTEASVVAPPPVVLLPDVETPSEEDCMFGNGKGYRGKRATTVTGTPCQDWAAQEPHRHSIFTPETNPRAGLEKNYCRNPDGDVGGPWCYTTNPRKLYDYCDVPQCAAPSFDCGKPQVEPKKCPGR
Chain of human plasmin (P00747 581-810 limits assumed): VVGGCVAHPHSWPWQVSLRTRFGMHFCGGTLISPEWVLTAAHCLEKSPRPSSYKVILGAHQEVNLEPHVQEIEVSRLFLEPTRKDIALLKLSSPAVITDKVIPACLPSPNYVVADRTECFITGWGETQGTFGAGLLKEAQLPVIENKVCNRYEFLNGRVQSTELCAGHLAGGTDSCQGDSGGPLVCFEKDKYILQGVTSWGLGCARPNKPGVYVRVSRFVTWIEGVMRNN
T2 sequence (P00750 36-562): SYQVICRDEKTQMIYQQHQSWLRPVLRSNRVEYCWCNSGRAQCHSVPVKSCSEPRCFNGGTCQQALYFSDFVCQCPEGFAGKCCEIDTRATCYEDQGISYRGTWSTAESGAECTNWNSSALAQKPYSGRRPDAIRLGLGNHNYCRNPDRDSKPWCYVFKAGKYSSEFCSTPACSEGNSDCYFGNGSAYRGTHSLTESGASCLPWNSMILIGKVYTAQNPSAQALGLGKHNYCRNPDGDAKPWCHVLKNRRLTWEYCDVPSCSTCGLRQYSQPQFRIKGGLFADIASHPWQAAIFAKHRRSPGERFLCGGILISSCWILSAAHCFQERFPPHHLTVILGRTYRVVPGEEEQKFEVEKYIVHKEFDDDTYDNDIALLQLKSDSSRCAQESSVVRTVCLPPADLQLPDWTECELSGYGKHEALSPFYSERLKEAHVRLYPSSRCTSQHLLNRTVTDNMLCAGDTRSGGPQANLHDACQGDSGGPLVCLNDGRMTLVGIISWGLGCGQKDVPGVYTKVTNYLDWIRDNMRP
Procedure for Human rt-PA (Activase®): The buffer used for all assays was HBSA (10 mM HEPES, pH 7.5, 150 mM sodium chloride, 0.1% bovine serum albumin). […] Following a 30-minute incubation at ambient temperature, 50 microliters of the substrate at the concentrations specified below, was added to the wells yielding a final total volume of 200 microliters. The initial velocity of chromogenic substrate hydrolysis was measured by the change in absorbance at 405nm using a Thermo Max® Kinetic Microplate Reader over a 5 minute period in which less than 5% of the added substrate was utilized.
rt-PA catalytic activity was determined using the substrate, Pefachrome t-PA (CH3SO2-D-hexahydrotyrosine-glycyl-L-arginine-p-nitroanilide, obtained from Pentapharm Ltd.). […] Human rt-PA (Activase®) was obtained from Genentech Inc. The enzyme was reconstituted in deionized water and diluted into HBSA prior to the assay in which the final concentration was 1.0 nM.

Regarding `NC(N)=NCCC[C@@H](C=O)NC(=O)CN1CCCC(NS(=O)(=O)Cc2ccccc2)C1=O` (stereo partly drawn) [Example 8, N-benzylsulfonyl-norVal(cyclo)-Gly-L-argininal], the “ED50 for thrombus prevention (dose that prevents complete thrombotic occlusion in 50% of animals tested)” value in test [1] (rat FeCl3 model of arterial thrombosis) amounted to 0.75 mg/kg. The “Incidence of Occlusion” value was 6/6 in test [1] (0.3 mg/kg single intravenous bolus 5 minutes prior to FeCl3, n 6, monitored 60 minutes); 2/6 in test [1] (1.0 mg/kg single intravenous bolus 5 minutes prior to FeCl3, n 6, monitored 60 minutes); 1/6 in test [1] (3.0 mg/kg single intravenous bolus 5 minutes prior to FeCl3, n 6, monitored 60 minutes); 0/6 in test [1] (5.0 mg/kg single intravenous bolus 5 minutes prior to FeCl3, n 6, monitored 60 minutes). Moreover, the “concentration which caused a doubling of the control clotting time (APTT)” value turned out to be 22.1 µM with citrated rat plasma (citrated rat plasma, control clotting time 20 sec, mean of two independent determinations) and 12.8 µM in the test with citrated human plasma (citrated human plasma, mean of two independent determinations). Also, the “prolongation of the APTT” value is “prolonged the APTT in a dose-dependent manner” in the test with citrated rat plasma (rat plasma, broad concentration range of added inhibitor) and “prolonged the APTT in a dose-dependent manner” with citrated human plasma (human plasma, broad concentration range of added inhibitor). For the same molecule, the values for the half-maximal inhibitory concentration (IC50) (at human aPC; at Human rt-PA (Activase®); in test [2]) were above 2500 nM, above 2500 nM and 1550 nM, respectively.
In the case of `NC(N)=NCCC[C@@H](C=O)NC(=O)CN1CCCCC(NS(=O)(=O)CC2CCCCC2)C1=O` (stereo partly drawn) [Example 36(i), N-(cyclohexylmethyl-SO2 -norLeu(cyclo)-Gly)-L-argininal], the IC50 against human plasmin is above 2500 nM; at human α-thrombin (Table 2, 30-minute incubation with enzyme before substrate, read-out: IC50 alpha-thrombin), 4.54 nM; in test [2], 7.86 nM.
In the case of `NC(N)=NCCC[C@@H](C=O)NC(=O)CN1CCCCC(NS(=O)(=O)Nc2ccccc2)C1=O` (stereo partly drawn) [Example 36(n), N-(phenylamino-SO2 -norLeu(cyclo)-Gly)-L-argininal], the IC50 against human plasmin was above 2500 nM; at human α-thrombin (setting [3]) it was 14.2 nM.
`N=C(N)NCCC[C@@H](C=O)NC(=O)CN1CCCC(NS(=O)(=O)Cc2cccc(C(F)(F)F)c2)C1=O` (stereo partly drawn) [Example 36(p), N-(3-trifluoromethylbenzyl-SO2-norLeu(cyclo)-Gly)-L-argininal]: the half-inhibitory concentration (IC50) against human plasmin was above 2500 nM; against human aPC it was above 2500 nM; on Human rt-PA (Activase®), above 2500 nM; at human α-thrombin (setting [3]) it was 1.9 nM.
For `Cc1ccccc1CS(=O)(=O)NC1CCCN(CC(=O)N[C@H](C=O)CCCNC(=N)N)C1=O` (stereo partly drawn) [Example 36(q), N-(2-methylbenzyl-SO2-norLeu(cyclo)-Gly)-L-argininal], at human α-thrombin (setting [3]), the IC50 was found to be 1.71 nM.
Still for that read-out and setting: with `Cc1cccc(CS(=O)(=O)NC2CCCCN(CC(=O)N[C@H](C=O)CCCN=C(N)N)C2=O)c1` (stereo partly drawn) [Example 36(r), N-(3-methylbenzyl-SO2-norLeu(cyclo)-Gly)-L-argininal] the figure was 0.93 nM.
With `NC(N)=NCCC[C@@H](C=O)NC(=O)CN1CCCC(N)(Cc2ccccc2)C1=O` (stereo partly drawn) [Example 55, N-[D, L-3-Amino-3-benzyl-2-oxo-1-piperidineacetyl]-L-argininal], the IC50 at human plasmin was above 2500 nM; against human aPC, above 2500 nM; at Human rt-PA (Activase®), above 2500 nM; on human α-thrombin (setting [3]) it was 5.41 nM.
For the molecule `NC(N)=NCCC[C@@H](C=O)NC(=O)CN1CCCCC(N)(Cc2ccccc2)C1=O` (stereo partly drawn) [Example 64, N-[D,.L-3-Amino-3-benzyl-hexahydro-2-oxo-azepine-1-acetyl]-L-argininal], the half-maximal inhibitory concentration (IC50) against human plasmin is above 2500 nM; against human aPC, above 2500 nM; on Human rt-PA (Activase®), above 2500 nM; at human α-thrombin (setting [3]) it was 5.41 nM.
Consider `N=C(N)NCCC[C@@H](C=O)NC(=O)CN1CCC[C@H](NCCc2ccccc2)C1=O` [Example 72(a), N-[(S)-3-N-phenylethylamino-2-oxo-1-piperidineacetyl]-L-argininal], for which the 50% inhibitory concentration (IC50) is above 2500 nM against human plasmin, above 2500 nM against human aPC, above 2500 nM at Human rt-PA (Activase®) and 3.09 nM on human α-thrombin (setting [3]).
